According to ChEMBL document CHEMBL3885881, “DrugMatrix”:

Species: Rattus norvegicus
Test: DrugMatrix - Regimen: Daily Repeat
Format: toxicity, organism-based, Sprague-Dawley
Design: regimen Daily Repeat, gender Male, age 6-8 weeks
Settings: in vivo, po, route oral GAVAGE, […]; for ABSOLUTE BASOPHIL / ABSOLUTE EOSINOPHIL / ABSOLUTE LYMPHOCYTE / ABSOLUTE MONOCYTE / ABSOLUTE SEGMENTED NEUTROPHIL / BASOPHIL / EOSINOPHIL / ERYTHROCYTE COUNT / HEMATOCRIT / HEMOGLOBIN / LEUKOCYTE COUNT / LYMPHOCYTE / MEAN CORPUSCULAR HEMOGLOBIN / MEAN CORPUSCULAR HEMOGLOBIN CONCENTRATION / MEAN CORPUSCULAR VOLUME / MONOCYTE / NEUTROPHIL / NUCLEATED RED BLOOD CELLS / PLATELET COUNT: tissue Blood; for ALANINE AMINOTRANSFERASE / ALBUMIN / ALKALINE PHOSPHATASE / ASPARTATE AMINOTRANSFERASE / BLOOD UREA NITROGEN / CARBON DIOXIDE / CHLORIDE / CHOLESTEROL / CREATINE PHOSPHOKINASE / CREATININE / GLUCOSE / LACTATE DEHYDROGENASE / LIPASE / PHOSPHORUS / POTASSIUM / SODIUM / TOTAL BILIRUBIN / TOTAL PROTEIN / URIC ACID: tissue Plasma
[1] = 0 mg/kg, 72 h, dose level Control, time 3 day
[2] = 0 mg/kg, 120 h, dose level Control, time 5 day
[3] = 72 h, dose 4.2 mg/Kg, dose level Low, time 3 day
[4] = 120 h, dose 4.2 mg/Kg, dose level Low, time 5 day

Compound: O=NN(CCCl)C(=O)NC1CCCCC1 [LOMUSTINE]
- ABSOLUTE BASOPHIL [1]: 0 CELLS/uL
- ABSOLUTE EOSINOPHIL [1]: 70.67 CELLS/uL
- ABSOLUTE LYMPHOCYTE [1]: 12761.5 CELLS/uL
- ABSOLUTE MONOCYTE [1]: 214.17 CELLS/uL
- ABSOLUTE SEGMENTED NEUTROPHIL [1]: 987 CELLS/uL
- BASOPHIL [1]: 0%
- EOSINOPHIL [1]: 0.5%
- ERYTHROCYTE COUNT [1]: 5.61 x10E6/uL
- HEMATOCRIT [1]: 35.22%
- HEMOGLOBIN [1]: 13.57 G/DL
- LEUKOCYTE COUNT [1]: 14.03 x10E3/uL
- LYMPHOCYTE [1]: 91%
- MEAN CORPUSCULAR HEMOGLOBIN [1]: 24.25 pg
- MEAN CORPUSCULAR HEMOGLOBIN CONCENTRATION [1]: 38.52 G/DL
- MEAN CORPUSCULAR VOLUME [1]: 62.9 fL
- MONOCYTE [1]: 1.5%
- NEUTROPHIL [1]: 7%
- NUCLEATED RED BLOOD CELLS [1]: 0 /100WBC
- PLATELET COUNT [1]: 997.5 x10E3/uL
- ALANINE AMINOTRANSFERASE [1]: 66.5 u/L
- ALBUMIN [1]: 3.98 G/DL
- ALKALINE PHOSPHATASE [1]: 350 u/L
- ASPARTATE AMINOTRANSFERASE [1]: 83.83 u/L
- BLOOD UREA NITROGEN [1]: 12.33 mg/dL
- CARBON DIOXIDE [1]: 30.33 mmol/L
- CHLORIDE [1]: 100 MEQ/L
- CHOLESTEROL [1]: 75 mg/dL
- CREATINE PHOSPHOKINASE [1]: 200 u/L
- CREATININE [1]: 0.17 mg/dL
- GLUCOSE [1]: 170 mg/dL
- LACTATE DEHYDROGENASE [1]: 89.33 u/L
- LIPASE [1]: 10.33 u/L
- PHOSPHORUS [1]: 10.88 mg/dL
- POTASSIUM [1]: 6.13 MEQ/L
- SODIUM [1]: 140.53 MEQ/L
- TOTAL BILIRUBIN [1]: 0.2 mg/dL
- TOTAL PROTEIN [1]: 5.67 G/DL
- URIC ACID [1]: 1.6 mg/dL
- ABSOLUTE BASOPHIL [2]: 0 CELLS/uL
- ABSOLUTE EOSINOPHIL [2]: 0 CELLS/uL
- ABSOLUTE LYMPHOCYTE [2]: 9526.67 CELLS/uL
- ABSOLUTE MONOCYTE [2]: 134.17 CELLS/uL
- ABSOLUTE SEGMENTED NEUTROPHIL [2]: 922.5 CELLS/uL
- BASOPHIL [2]: 0%
- EOSINOPHIL [2]: 0%
- ERYTHROCYTE COUNT [2]: 5.58 x10E6/uL
- HEMATOCRIT [2]: 34.78%
- HEMOGLOBIN [2]: 13.5 G/DL
- LEUKOCYTE COUNT [2]: 10.58 x10E3/uL
- LYMPHOCYTE [2]: 90.17%
- MEAN CORPUSCULAR HEMOGLOBIN [2]: 24.27 pg
- MEAN CORPUSCULAR HEMOGLOBIN CONCENTRATION [2]: 38.82 G/DL
- MEAN CORPUSCULAR VOLUME [2]: 62.48 fL
- MONOCYTE [2]: 1.17%
- NEUTROPHIL [2]: 8.67%
- NUCLEATED RED BLOOD CELLS [2]: 0.17 /100WBC
- PLATELET COUNT [2]: 807.17 x10E3/uL
- ALANINE AMINOTRANSFERASE [2]: 66.83 u/L
- ALBUMIN [2]: 3.73 G/DL
- ALKALINE PHOSPHATASE [2]: 286.17 u/L
- ASPARTATE AMINOTRANSFERASE [2]: 142.33 u/L
- BLOOD UREA NITROGEN [2]: 14.67 mg/dL
- CARBON DIOXIDE [2]: 25.5 mmol/L
- CHLORIDE [2]: 89.17 MEQ/L
- CHOLESTEROL [2]: 75.17 mg/dL
- CREATINE PHOSPHOKINASE [2]: 310.67 u/L
- CREATININE [2]: 0.2 mg/dL
- GLUCOSE [2]: 153 mg/dL
- LACTATE DEHYDROGENASE [2]: 1594 u/L
- LIPASE [2]: 14.83 u/L
- PHOSPHORUS [2]: 11.28 mg/dL
- POTASSIUM [2]: 8.46 MEQ/L
- SODIUM [2]: 126.88 MEQ/L
- TOTAL BILIRUBIN [2]: 0.37 mg/dL
- TOTAL PROTEIN [2]: 5.53 G/DL
- URIC ACID [2]: 1.52 mg/dL
- ABSOLUTE BASOPHIL [3]: 0 CELLS/uL
- ABSOLUTE EOSINOPHIL [3]: 32.67 CELLS/uL
- ABSOLUTE LYMPHOCYTE [3]: 10341.33 CELLS/uL
- ABSOLUTE MONOCYTE [3]: 0 CELLS/uL
- BASOPHIL [3]: 0%
- EOSINOPHIL [3]: 0.33%
- ERYTHROCYTE COUNT [3]: 5.55 x10E6/uL
- HEMATOCRIT [3]: 34.1%
- HEMOGLOBIN [3]: 13.57 G/DL
- LEUKOCYTE COUNT [3]: 10.97 x10E3/uL
- LYMPHOCYTE [3]: 94.33%
- MEAN CORPUSCULAR HEMOGLOBIN [3]: 24.43 pg
- MEAN CORPUSCULAR HEMOGLOBIN CONCENTRATION [3]: 39.77 G/DL
- MEAN CORPUSCULAR VOLUME [3]: 61.4 fL
- MONOCYTE [3]: 0%
- NEUTROPHIL [3]: 5.33%
- NUCLEATED RED BLOOD CELLS [3]: 0 /100WBC
- PLATELET COUNT [3]: 1095 x10E3/uL
- ALANINE AMINOTRANSFERASE [3]: 51.33 u/L
- ALBUMIN [3]: 3.83 G/DL
- ALKALINE PHOSPHATASE [3]: 333.67 u/L
- ASPARTATE AMINOTRANSFERASE [3]: 87.33 u/L
- BLOOD UREA NITROGEN [3]: 11.33 mg/dL
- CARBON DIOXIDE [3]: 25.67 mmol/L
- CHLORIDE [3]: 103 MEQ/L
- CHOLESTEROL [3]: 70 mg/dL
- CREATINE PHOSPHOKINASE [3]: 944.67 u/L
- CREATININE [3]: 0.19 mg/dL
- GLUCOSE [3]: 199 mg/dL
- LACTATE DEHYDROGENASE [3]: 127 u/L
- LIPASE [3]: 10.33 u/L
- PHOSPHORUS [3]: 11.7 mg/dL
- POTASSIUM [3]: 5.37 MEQ/L
- SODIUM [3]: 142.27 MEQ/L
- TOTAL BILIRUBIN [3]: 0.1 mg/dL
- TOTAL PROTEIN [3]: 5.5 G/DL
- URIC ACID [3]: 1.6 mg/dL
- ABSOLUTE BASOPHIL [4]: 0 CELLS/uL
- ABSOLUTE EOSINOPHIL [4]: 32 CELLS/uL
- ABSOLUTE LYMPHOCYTE [4]: 5295.33 CELLS/uL
- ABSOLUTE MONOCYTE [4]: 16 CELLS/uL
- ABSOLUTE SEGMENTED NEUTROPHIL [4]: 290 CELLS/uL
- BASOPHIL [4]: 0%
- EOSINOPHIL [4]: 0.67%
- ERYTHROCYTE COUNT [4]: 5.43 x10E6/uL
- HEMATOCRIT [4]: 33.87%
- HEMOGLOBIN [4]: 13.53 G/DL
- LEUKOCYTE COUNT [4]: 5.63 x10E3/uL
- LYMPHOCYTE [4]: 94%
- MEAN CORPUSCULAR HEMOGLOBIN [4]: 24.9 pg
- MEAN CORPUSCULAR HEMOGLOBIN CONCENTRATION [4]: 39.97 G/DL
- MEAN CORPUSCULAR VOLUME [4]: 62.43 fL
- MONOCYTE [4]: 0.33%
- NEUTROPHIL [4]: 5%
- NUCLEATED RED BLOOD CELLS [4]: 0 /100WBC
- PLATELET COUNT [4]: 1171.33 x10E3/uL
- ALANINE AMINOTRANSFERASE [4]: 53.33 u/L
- ALBUMIN [4]: 4.17 G/DL
- ALKALINE PHOSPHATASE [4]: 336 u/L
- ASPARTATE AMINOTRANSFERASE [4]: 97.33 u/L
- BLOOD UREA NITROGEN [4]: 10 mg/dL
- CARBON DIOXIDE [4]: 31.33 mmol/L
- CHLORIDE [4]: 101 MEQ/L
- CHOLESTEROL [4]: 63.33 mg/dL
- CREATINE PHOSPHOKINASE [4]: 631.67 u/L
- CREATININE [4]: 0.13 mg/dL
- GLUCOSE [4]: 157 mg/dL
- LACTATE DEHYDROGENASE [4]: 132 u/L
- LIPASE [4]: 11 u/L
- PHOSPHORUS [4]: 10.57 mg/dL
- POTASSIUM [4]: 5.78 MEQ/L
- SODIUM [4]: 147.05 MEQ/L
- TOTAL BILIRUBIN [4]: 0.13 mg/dL
- TOTAL PROTEIN [4]: 5.93 G/DL
- URIC ACID [4]: 0.77 mg/dL
